Reference: publication PMC7352759, “S(+)-(2E)-N-(2-Hydroxypropyl)-3-Phenylprop-2-Enamide (KM-568): A Novel Cinnamamide Derivative with Anticonvulsant Activity in Animal Models of Seizures and Epilepsy” (International Journal of Molecular Sciences, 2020)

Columns and labels:
HepG2 cells = assay: LDH cytotoxicity assay, HepG2; assay type: cell-based, human; settings: HepG2, up to 100 µM, 24 h
Description: Human liver cancer HepG2 cell line (ATCC HB8065) and rat cardiomyoblast cell line H9c2 (ATCC-CRL1446) were purchased in ATCC (American Type Culture Collection, Manassas, VA, USA). The cells were cultured in standard conditions (37 °C, 5% CO2) in EMEM medium (ATCC, Manassas, VA, USA), supplemented with 10% FBS (Gibco, Waltham, MA, USA) and antibiotics (1% streptomycin/penicillin mixture, Sigma–Aldrich, Darmstadt, Germany) or DMEM high glucose (ATCC, Manassas, VA, USA) supplemented with 10% FBS (Gibco, Waltham, MA, USA) and antibiotics (1% streptomycin/penicillin mixture, Sigma–Aldrich, Darmstadt, Germany), respectively.
Cells were seeded at density 5 × 10^4 cells/per well. After 24 h, KM-568 and reference standard DOX were added to final concentrations of 0.1; 0.5; 1.0; 10; 25; 50; 100; 200 µM. After 24 h incubation, plates were centrifuged (400 g, 2 min) and 50 μL of the supernatant was transferred into the corresponding 96-well plate. […] Next, stop solution was added and absorbance was measured at 490 nm on a multi-well plate reader (Spectra Max iD3, Molecular Devices, San Jose, CA, USA). Cytotoxicity was determined as follows: cytotoxicity (%)=[(compound LDH activity – spontaneous LDH activity)/(maximum LDH activity – spontaneous LDH activity)] × 100. […]

CF-1 mice = assay: Chemoconvulsant test, picrotoxin; assay type: in vivo; settings: 0.25 h; for Picrotoxin Results (protected/tested animals): i.p.
Description: After 0.25 h, the subcutaneous injections of either bicuculine (2.7 mg/kg) or picrotoxin (2.5 mg/kg) were performed. The, animals were placed in isolation cages and observed for 30 min (in a bicuculine assay) or 45 min (in a picrotoxin assay) for the presence or absence of an episode of a clonic seizure.

mice = assay: Maximal electroshock test (MES), mice; assay type: in vivo; settings: for ED50: Mus musculus, 95% confidence interval in parentheses
Description: In vivo activity testing was performed at the Epilepsy Branch, National Institute of Neurological Disorders and Stroke, National Institutes of Health (NIH, Bethesda, USA) within the Anticonvulsant Screening Program (ASP) (currently known as the Epilepsy Therapy Screening Program (ETSP)). Pharmacological evaluation was planned and performed in accordance with the Institute of Laboratory Resources polices on the humane care of laboratory animals and approved by the University of Utah’s Institutional Animal Care and Use Committee (IACUC). All testing protocols were previously published as well as they are available on the NIH website. In the tests, albino mice Carworth Farms No.1 (CF-1) (Charles River), C57/Bl6 mice (Charles River), Frings mice (University of Utah) or male rats Sprague–Dawley (Charles River) were used. All animals were housed, fed, and handled in a manner consistent with the recommendations in the National Council Publication, ‘Guide for the Care and Use of Laboratory animals’ [51]. The tested compound was suspended in 0.5% methylcellulose.
After intraperitoneal or oral administration of compound KM-568 at certain dose, an alternating current at 60 Hz and 50 mA (mice) or 150 mA (rats) was delivered for 0.2 sec via corneal electrodes to induce seizures. Prior to each stimulation, a drop of 0.5% tetracaine hydrochloride in saline was applied to cornea. Protection was defined as the abolition of the hindlimb tonic extension of the seizures.

C57/Bl6 mice = assay: Mesial temporal lobe epilepsy model (MTLE); assay type: in vivo; settings: 114 mg/kg i.p., recording period 20–40 min
Description: Adult male C57/Bl6 mice were placed in a stereotactic frame, injected with kainate (1 nmol/100 nL) and implanted with 1 bipolar electrode in the dorsal hippocampus. The animals were then allowed to recover for four weeks. Four animals chosen for tests were intraperitoneally injected with KM-568 at 114 mg/kg (ED50 obtained in 6-Hz 44 mA test). Digital EEG recordings were performed on freely moving animals for 20 min pre-injection (reference period) and from 20 to 40 min after injection (10 min before and 10 min after peak time of effect in a 6-Hz 44 mA test). Animals are used as their own controls. In the testing periods, spontaneous recurrent hippocampal paroxysmal discharges (HPD) were counted.

[1] = In vitro metabolism, mouse liver microsomes; assay type: in vitro ADME
Description: Stock solution of KM-568 was prepared in methanol. Mouse liver microsomes (Sigma–Aldrich, Darmstadt, Germany) were carefully thawed on ice before the experiment. A compound tested at concentration 20 μM was preincubated with mouse liver microsomes (0.4 mg/mL) in 100 mM potassium-phosphate buffer (pH 7.4) for 15 min at 37 °C. The biotransformation reaction was started with the addition of NADPH-regenerating system (NADP^+, glucose-6-phosphate, 0.7 U/mL glucose-6-phosphate dehydrogenase in 100 mM potassium-phosphate buffer) (Sigma–Aldrich, Darmstadt, Germany) and the mixture was incubated at 37 °C. Experiments were carried out 30 and 60 min at 37 °C, in duplicates. Negative control without NADPH-regenerating system was also conducted. Biotransformation was stopped by adding cooled 70% perchloric acid. Next, an internal standard (pentoxifylline) was added and samples were centrifuged at 9000 rpm for 10 min at 4 °C. The supernatant was analyzed by means of LC/MS. In vitro half time (t1/2) was established from the slope of the compound depletion curve. Intrinsic clearance (Clint) was obtained from the equation Clint = (volume of incubation [µl]/protein in the incubation [mg]) × 0.693/t1/2 [58, 59].

## C[C@H](O)CNC(=O)/C=C/c1ccccc1 [KM-568, S(+)-(2E)-N-(2-hydroxypropyl)-3-phenylprop-2-enamide]
HepG2 cells
  cytotoxic effect, LDH assay: no cytotoxic effect
CF-1 mice; Mus musculus, ip, 95% confidence interval in parentheses
  ED50: 94.1 mg/kg
CF-1 mice; 70 mg/kg
  Picrotoxin Results (protected/tested animals): 1/8
CF-1 mice; 100 mg/kg
  Picrotoxin Results (protected/tested animals): 5/8
CF-1 mice; 130 mg/kg
  Picrotoxin Results (protected/tested animals): 7/8
mice; ip, 0.25 h
  ED50: 44.5 mg/kg
mice; po, 0.5 h
  ED50: 86.6 mg/kg
mice; i.p., 25 mg/kg, 0.25 h
  MES Results (protected/tested animals): 0/8
mice; i.p., 38 mg/kg, 0.25 h
  MES Results (protected/tested animals): 1/8
mice; i.p., 41 mg/kg, 0.25 h
  MES Results (protected/tested animals): 0/8
mice; i.p., 42 mg/kg, 0.25 h
  MES Results (protected/tested animals): 2/8
mice; i.p., 44 mg/kg, 0.25 h
  MES Results (protected/tested animals): 5/8
mice; i.p., 50 mg/kg, 0.25 h
  MES Results (protected/tested animals): 7/8
mice; p.o., 50 mg/kg, 0.5 h
  MES Results (protected/tested animals): 0/8
mice; p.o., 60 mg/kg, 0.5 h
  MES Results (protected/tested animals): 2/8
mice; p.o., 70 mg/kg, 0.5 h
  MES Results (protected/tested animals): 2/8
mice; p.o., 90 mg/kg, 0.5 h
  MES Results (protected/tested animals): 3/8
mice; p.o., 120 mg/kg, 0.5 h
  MES Results (protected/tested animals): 7/8
mice; p.o., 150 mg/kg, 0.5 h
  MES Results (protected/tested animals): 8/8
C57/Bl6 mice
  Effect (% of Baseline), HPD counts: 73.9 % of Baseline
  Mean HPD Counts: 12.8
[1]; after 60 min of incubation with microsomes
  compound remained unchanged: 72.37%
[1]; mouse liver microsomes
  metabolic stability qualification: moderate metabolically stable
[1]; pH 7.4, mouse liver microsomes, 20 μM, read-out: half-life time (t1/2)
  half-life at 20 μM: 2.14 h
[1]; pH 7.4, mouse liver microsomes, 20 μM, read-out: internal clearance (Clint)
  microsomal CLint at 20 μM: 13.5 µL/min/mg
